Test results from patent publication US20170156335A1, “SYSTEMS AND METHODS FOR RELEASING CHLORINE DIOXIDE” (priority 2014, published 2017).

Tested on: Raoultella (Klebsiella) terrigena (R. terrigena, ATCC 33257)
Assay: Anti-microbial activity test (AMA) in water bottles vs Raoultella terrigena
Assay type: cell-based
Details: AWT018; without SC

CCOC(C)=O [EtOAc, Ethyl acetate]
antimicrobial potential of formulation additives: no antimicrobial potential
